According to PubChem BioAssay AID850 (SRMLSC, 2007):
The source made the active and inactive calls. How the calls were made is not given here.

Experiments:
[1] = concentration-response yeast growth inhibition under permissive conditions, counter-assay for yeast lifespan-shortening chemical project (AID 850); details: Saccharomyces cerevisiae growth inhibition, permissive control, measured here: maximum growth inhibition, stronger effect = higher value;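 further: growth read as optical density after one day of incubation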
[2] = tested on: Saccharomyces cerevisiae growth inhibition, permissive control; experiment: as above

SMILES	IC50 [2]	inhibition ([1]; at 50 µM)	further results
COc1ccc(OC)c(CCNC(=O)Cn2sc3nc(C)cc(C)c3c2=O)c1	> 100 µM (inactive)		inhibition ([1]; at 0.391 µM): 13%
O=C(O)c1cc2c(s1)-c1ccccc1CC2	50.5 µM	47.3%	
O=C(Nc1cccc(N=Cc2cc(Cl)cc(Br)c2O)c1)c1ccco1	25.8 µM	89.6%	
CCOC(=O)C(=NCCCN(C)C)NNc1ccc(Br)cc1	5.8 µM	97.4%	
Nc1ccc(O)c2c1C(=O)c1ccccc1C2=O	> 100 µM (inactive)		inhibition ([1]; at 25 µM): 16.4%
Cc1cc(C(=O)COC(=O)c2ccc[nH]c2=O)c(C)n1-c1ccccc1	26.9 µM	67.1%	
c1ccc(-n2c(-c3ccco3)nnc2-c2ccco2)cc1	> 100 µM (inactive)		inhibition ([1]; at 12.5 µM): 22.7%
O=C(OCn1ncc(Br)c(Br)c1=O)c1ccccc1Cl	> 100 µM (inactive)		inhibition ([1]; at 0.781 µM): 10.5%
CN(c1ccccc1)c1ccc(/C=C/[N+](=O)[O-])cc1	16.8 µM	98.4%	
O=C1NC(=S)N(c2ccccc2F)C(=O)/C1=C\c1cccs1	13.6 µM	91.4%	
N/C(Cc1ccc(Cl)cc1)=N\OC(=O)C1CCCCC1	15.8 µM	98.8%	
O=C(c1ccccc1)c1ccc2nc(N3CCCCC3)c3nncn3c2c1	> 100 µM (inactive)		inhibition ([1]; at 0.195 µM): 14.9%
CCOC(=O)/C(=N\Nc1ccccc1Cl)N1CCN(Cc2ccccc2)CC1	26.8 µM	73.9%	
O=C(Nc1nnc(C2CC2)s1)c1ccccn1	> 100 µM (inactive)	22.8%	
Oc1cccc2ccc(Nc3ccccn3)nc12	12.5 µM	99.4%	
CCOC(=O)c1cc([N+](=O)[O-])c([N+](=O)[O-])cc1NC(C)=O	< 0.098 µM		inhibition ([1]; at 12.5 µM): 99.6%
CCCCOC(=O)n1c(=S)oc2cc(Cl)ccc21	14.5 µM	99.8%	
O=C1OCC(CO)(CO)N=C1NNc1ccccc1Cl	3.49 µM		inhibition ([1]; at 25 µM): 98.4%
CCOC(=O)c1c(NC(=O)C(C)Sc2cccc[n+]2[O-])sc2c1CCN(Cc1ccccc1)C2 (configuration not stated)	16.3 µM	98.6%	
CCCCC(=O)NNC(=S)NC(=O)CCC	29.7 µM	75.2%	
CC(C)(C)n1nc(-c2ccc(Cl)cc2)c2c(N)ncnc21	1.1 µM	80.7%	

SMILES	IC50 [2]	inhibition ([1]; at 50 µM)	further results
Cn1c(SCC(=O)N/N=C/c2ccc([N+](=O)[O-])s2)nnc1-c1ccc(Cl)cc1	29.7 µM	99.2%	
COc1ccc(C(=O)N/N=C/c2sc3ccccc3c2O)cc1	> 100 µM (inactive)		inhibition ([1]; at 0.781 µM): 17%
CCn1c(=O)c(C(=O)Nn2c(C)nc3ccccc3c2=O)c(O)c2ccccc21	13.4 µM		inhibition ([1]; at 25 µM): 99%
CCOC(=O)c1c(N)sc2c(OC)c(Br)ccc12	> 100 µM (inactive)		inhibition ([1]; at 3.125 µM): 24.4%
CCN(CC)c1ccc(S(=O)(=O)N2CCOCC2)cc1NC(=O)CSc1cccc[n+]1[O-]	25.3 µM	96.5%	
N/C(Cc1ccc(Cl)c(Cl)c1)=N\OC(=O)c1cccs1	> 100 µM (inactive)		inhibition ([1]; at 0.195 µM): 4.64%
Cc1ccc(Oc2nc(CN3CCOCC3)nc3sc4c(c23)CCC(C)C4)cc1C (configuration not stated)	23.5 µM	93.4%	
CCn1ncc(C2=NOC(C(=O)Nc3c(C)n(C)n(-c4ccccc4)c3=O)C2)c1C (configuration not stated)	> 100 µM (inactive)		inhibition ([1]; at 0.195 µM): 6.76%
O=C1C(=O)c2ccccc2-c2ccccc21	1.01 µM	99.2%	
CN1CCN(C2=Cc3cc(Cl)ccc3Sc3cc(F)ccc32)CC1	20.4 µM	100%	
CC1Cc2ccccc2N1C(=O)CSC1=NCCS1 (configuration not stated)	> 100 µM (inactive)		inhibition ([1]; at 0.781 µM): 16.7%
Cc1nc(N/N=C/c2ccccn2)sc1C	25.8 µM	99.8%	
NC(=O)c1sc2nc(-c3ccco3)ccc2c1N	> 100 µM (inactive)		inhibition ([1]; at 1.563 µM): 8.46%
CCCCS(=O)(=O)/C=C\C=C/S(=O)(=O)CCCC	> 100 µM (inactive)		inhibition ([1]; at 6.25 µM): 21.2%
Cc1ccc(C(=O)c2c(C)oc3c2C(=O)C(=O)c2ccccc2-3)cc1	43.6 µM	95.5%	
CCCc1ccc(Oc2cn[nH]c2-c2ccc(O)c(C)c2O)cc1	7.32 µM		inhibition ([1]; at 12.5 µM): 101%
O=C1CC(N2CCN(c3nc4ccccc4s3)CC2)C(=O)N1Cc1cccs1 (configuration not stated)	> 100 µM (inactive)		inhibition ([1]; at 0.781 µM): 28.5%
Cc1ccc(/C=C2\C(=O)NC(=S)N(c3ccccc3F)C2=O)s1	> 100 µM (inactive)		inhibition ([1]; at 6.25 µM): 29%
O=[N+]([O-])c1ccccc1-c1cc(-c2cc(Cl)ccc2O)n[nH]1	> 100 µM (inactive)		inhibition ([1]; at 12.5 µM): 16.3%
Cc1cc(C)c2c(=O)n(CC(=O)N3CCC(Cc4ccccc4)CC3)sc2n1	> 100 µM (inactive)		inhibition ([1]; at 0.391 µM): 6.81%
CCCCc1ccc(NC(=S)Nc2ccc(Nc3ccc(OC)cc3)cc2)cc1	> 100 µM (inactive)	16.8%	

SMILES	IC50 [2]	inhibition ([1]; at 50 µM)	further results
Cc1c(Cl)cccc1N=Cc1ccc([N+](=O)[O-])s1	> 100 µM (inactive)	9.36%	
CCc1cccc(C)c1NC(=S)NCc1ccc2[nH]c(C)cc2c1	> 100 µM (inactive)	8.77%	
C(=C\c1nc(N2CCCCCC2)c2ccccc2n1)/c1ccccc1	39.2 µM	78.2%	
O=C1C=C(c2ccccc2)C(=O)N1Nc1ccccc1	23.6 µM	85.8%	
CC(=O)Oc1ccc(N2C(=O)C3C(C2=O)C2(C)C=CC3(C)O2)cc1 (configuration not stated)	> 100 µM (inactive)		inhibition ([1]; at 0.195 µM): 3.93%
Cn1c(/C=C/c2ccc([N+](=O)[O-])o2)nc2ccccc2c1=O	51.4 µM	47.5%	
Oc1ccc(/C=C/c2nc(-c3ccccc3O)n(-c3ccccc3)n2)cc1	47.1 µM	54.3%	
CCOc1ccc(-c2[nH]ncc2Oc2cccc(OC)c2)c(O)c1	> 100 µM (inactive)	28.1%	
Cc1ccc(C(=O)O/N=C/c2c(N3CCOCC3)n(C)c3ccccc23)cc1	> 100 µM (inactive)		inhibition ([1]; at 6.25 µM): 18.7%
Cc1ccc(N/N=C/c2c(O)cc(C)oc2=O)cc1	11.8 µM	99.4%	
CCn1c(Sc2nc(C)nc3scc(-c4cccs4)c23)n[nH]c1=O	22.9 µM		inhibition ([1]; at 25 µM): 55.1%
Cc1ccc(C(=O)O)cc1N=Cc1cc(Br)cc(Br)c1O	6.04 µM	97.1%	
CCSc1nnc(NC(=O)c2ccccn2)s1	12.7 µM	97.8%	
COc1ccc(OC)c(-c2c3cc(O)c(=O)cc-3oc3cc(O)c(O)cc23)c1	28.1 µM	63.5%	
S=C(NCC1CCCCC1)Nc1ccc(Oc2ccccc2)cc1	> 100 µM (inactive)		inhibition ([1]; at 0.781 µM): 7.72%
Cc1ccc(O)c(-c2cc(-c3ccccc3C)[nH]n2)c1	44.7 µM	56.5%	
Cc1c(C(=O)O)cccc1-c1ccc(/C=N/Nc2ccc(Br)cc2)o1	13.1 µM	95.6%	
O=C1c2ccccc2C(=O)N1Cc1ccco1	> 100 µM (inactive)		inhibition ([1]; at 25 µM): 8.88%
O=Nc1c(O)n(Cc2ccc(Cl)c(Cl)c2)c2ccccc12	43.1 µM	58.3%	
Cc1[nH]n(-c2ccccc2)c(=O)c1/C=N/N1C(=O)c2ccc3c4c(ccc(c24)C1=O)CC3	> 100 µM (inactive)		inhibition ([1]; at 0.781 µM): 8.51%
O=c1oc2ccccc2c(N2CCCC2)c1CN1CCCC1	> 100 µM (inactive)		inhibition ([1]; at 12.5 µM): 11.7%

SMILES	IC50 [2]	inhibition ([1]; at 50 µM)	further results
CCc1nc2ccccc2c(=O)n1NC(=O)c1c(O)c2cccc3c2n(c1=O)CCC3	> 100 µM (inactive)	2.73%	
CCOC(=O)CSc1nnc(CSc2nc(N)c3c(C)c(C)sc3n2)n1-c1ccccc1	> 100 µM (inactive)		inhibition ([1]; at 0.391 µM): 7.59%
N/C(Cc1ccccc1)=N\OC(=O)c1cccc2ccccc12	8.26 µM	100%	
c1cn2cc(-c3ccc4c(c3)OCO4)nc2s1	> 100 µM (inactive)	27.3%	
COc1ccc2cc(C(=O)O)ccc2c1	20.5 µM	72.1%	
Cc1ccc(O)c(-c2cc(-c3cccc(F)c3)n[nH]2)c1	25 µM	96.9%	
Nc1nonc1C(=O)NCCN=Cc1cc(Cc2ccccc2)cc(Br)c1O	> 100 µM (inactive)	22.4%	
FC(F)Sc1ccc(Nc2ncnc3nc[nH]c23)cc1	> 100 µM (inactive)		inhibition ([1]; at 1.563 µM): 11.9%
O=C1ON=C(c2ccccc2)/C1=C/c1ccc(OS(=O)(=O)c2ccccc2)cc1	> 100 µM (inactive)	11.6%	
CCCCNC(=S)NCc1ccc2c(c1)cc(C)n2C	> 100 µM (inactive)		inhibition ([1]; at 0.781 µM): 0.79%
COc1ccccc1N1CCN(Cc2cc(Br)c(O)c3ncccc23)CC1	12.7 µM	99.6%	
S=C1SCN(Cc2ccccn2)CN1Cc1ccco1	43.4 µM	55.7%	
O=C1NCCCC1C(=O)N/N=C/c1cccc(O)c1 (configuration not stated)	> 100 µM (inactive)		inhibition ([1]; at 1.563 µM): 16%
CCCS(=O)(=O)c1nnnn1-c1cccc(OC)c1	5.29 µM	99%	
Cc1cccc(OCCn2cc(/C=N/NC(=O)c3ccncc3)c3ccccc32)c1	> 100 µM (inactive)		inhibition ([1]; at 0.781 µM): 10%
O=C(COc1ccc(Cl)cc1)NC1=NN(c2ccccc2)C(=O)C1	> 100 µM (inactive)		inhibition ([1]; at 6.25 µM): 14.6%
CCOCC(=O)Nc1nc2c(s1)C(=O)CC(C)(C)C2	> 100 µM (inactive)	1.4%	
O=c1cc(-c2ccncc2)oc2ccccc12	> 100 µM (inactive)		inhibition ([1]; at 3.125 µM): 20.9%
